# Measured values published in ChEMBL document CHEMBL4265934 (Eur J Med Chem, 2018).
# Activity calls are given as the source filed them. No cut-off for these calls is given here.
# Key:
# [1] = molecular target: T1, Phosphatidylinositol 4,5-bisphosphate 3-kinase catalytic subunit delta isoform (Homo sapiens) (UniProt O00329); experiment: Inhibition of PI3Kdelta in human basophils assessed as reduction in IgE-induced degranulation by measuring CD203c expression level at 100 uM by fluorescence assay relative to control; design: scale not given: the % may be the effect or the level left
# T1 sequence (whole entry): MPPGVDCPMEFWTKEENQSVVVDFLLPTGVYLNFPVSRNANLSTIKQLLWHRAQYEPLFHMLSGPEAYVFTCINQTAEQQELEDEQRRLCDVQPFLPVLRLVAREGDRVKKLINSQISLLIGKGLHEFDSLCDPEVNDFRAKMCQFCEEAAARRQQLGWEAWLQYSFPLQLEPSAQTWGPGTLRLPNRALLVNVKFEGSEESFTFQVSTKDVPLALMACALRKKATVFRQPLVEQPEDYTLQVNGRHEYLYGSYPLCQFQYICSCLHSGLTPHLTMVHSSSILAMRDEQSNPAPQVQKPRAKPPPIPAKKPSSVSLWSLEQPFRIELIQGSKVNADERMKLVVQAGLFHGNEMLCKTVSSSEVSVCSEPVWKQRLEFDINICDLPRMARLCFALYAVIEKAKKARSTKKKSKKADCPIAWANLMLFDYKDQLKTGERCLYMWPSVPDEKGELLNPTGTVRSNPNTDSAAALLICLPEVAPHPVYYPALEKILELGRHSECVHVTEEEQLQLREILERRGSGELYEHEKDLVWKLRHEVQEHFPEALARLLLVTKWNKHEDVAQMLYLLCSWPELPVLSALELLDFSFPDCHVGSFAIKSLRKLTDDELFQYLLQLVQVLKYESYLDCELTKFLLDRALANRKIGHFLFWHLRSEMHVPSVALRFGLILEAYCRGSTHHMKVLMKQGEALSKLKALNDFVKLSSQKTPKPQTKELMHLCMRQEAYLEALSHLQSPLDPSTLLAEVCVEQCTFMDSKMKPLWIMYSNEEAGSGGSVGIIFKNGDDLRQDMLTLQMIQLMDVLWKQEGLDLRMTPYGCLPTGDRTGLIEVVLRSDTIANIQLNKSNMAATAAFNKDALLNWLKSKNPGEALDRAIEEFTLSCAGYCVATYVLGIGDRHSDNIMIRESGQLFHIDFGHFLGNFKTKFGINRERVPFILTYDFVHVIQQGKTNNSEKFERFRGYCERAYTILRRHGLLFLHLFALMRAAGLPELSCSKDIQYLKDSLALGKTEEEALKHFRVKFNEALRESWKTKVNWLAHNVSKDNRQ
# [2] = molecular target: T1, Phosphatidylinositol 4,5-bisphosphate 3-kinase catalytic subunit delta isoform (Homo sapiens); experiment: Inhibition of PI3Kdelta in human basophils assessed as reduction in IgE-induced degranulation by measuring CD63 expression level at 100 uM by flow cast assay relative to control; design: scale not given: the % may be the effect or the level left
# Mus musculus [3] = experiment: Anti-inflammatory activity in mouse model of ovalbumin-induced asthma assessed as decrease in total leukocytic infilterate in BAL at 10 mg/kg aerosolized daily; type: functional, organism-based
# Mus musculus [4] = experiment: Anti-asthmatic activity in mouse model of ovalbumin-induced asthma assessed as decrease in methacholine-induced lung resistance at 10 mg/kg aerosolized daily by plethysmographic method; type: functional, organism-based
# Mus musculus [5] = experiment: Anti-inflammatory activity in mouse model of ovalbumin-induced asthma assessed as decrease in eosinophilic infilteration administered ip daily; type: functional, organism-based
# Mus musculus [6] = experiment: Anti-inflammatory activity in mouse model of ovalbumin-induced asthma assessed as decrease in total leukocytic infilterate in BAL at 90 mg/kg aerosolized daily; type: functional, organism-based
# PI3K p110 beta/p85 alpha = PI3K p110 beta/p85 alpha (Homo sapiens, UniProt P42338); experiment: Inhibition of PI3KCbeta/PIK3R1 (unknown origin); type: protein-complex assay
# PI3K p110 beta/p85 alpha, sequence (P27986 whole entry): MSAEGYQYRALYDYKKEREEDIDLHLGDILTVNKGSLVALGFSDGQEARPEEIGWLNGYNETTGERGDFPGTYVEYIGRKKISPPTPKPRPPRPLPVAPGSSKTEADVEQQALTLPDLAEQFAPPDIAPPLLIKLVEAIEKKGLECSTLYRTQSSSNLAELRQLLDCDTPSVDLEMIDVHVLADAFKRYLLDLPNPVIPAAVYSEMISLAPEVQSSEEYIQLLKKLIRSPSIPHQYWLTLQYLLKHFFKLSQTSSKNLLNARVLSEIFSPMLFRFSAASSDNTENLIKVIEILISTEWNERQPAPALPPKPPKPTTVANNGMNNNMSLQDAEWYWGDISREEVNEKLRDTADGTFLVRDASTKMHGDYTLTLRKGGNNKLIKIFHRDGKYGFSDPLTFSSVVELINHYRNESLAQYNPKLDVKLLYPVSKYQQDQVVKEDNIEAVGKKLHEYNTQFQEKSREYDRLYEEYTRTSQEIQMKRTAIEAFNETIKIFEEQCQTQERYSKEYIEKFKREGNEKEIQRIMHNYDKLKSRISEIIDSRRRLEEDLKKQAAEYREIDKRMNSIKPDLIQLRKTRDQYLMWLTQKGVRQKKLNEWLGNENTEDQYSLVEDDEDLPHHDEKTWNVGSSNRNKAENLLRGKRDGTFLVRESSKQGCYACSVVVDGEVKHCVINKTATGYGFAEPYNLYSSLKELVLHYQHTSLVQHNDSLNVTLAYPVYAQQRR
# PI3K p110 beta/p85 alpha, sequence (P42338 whole entry): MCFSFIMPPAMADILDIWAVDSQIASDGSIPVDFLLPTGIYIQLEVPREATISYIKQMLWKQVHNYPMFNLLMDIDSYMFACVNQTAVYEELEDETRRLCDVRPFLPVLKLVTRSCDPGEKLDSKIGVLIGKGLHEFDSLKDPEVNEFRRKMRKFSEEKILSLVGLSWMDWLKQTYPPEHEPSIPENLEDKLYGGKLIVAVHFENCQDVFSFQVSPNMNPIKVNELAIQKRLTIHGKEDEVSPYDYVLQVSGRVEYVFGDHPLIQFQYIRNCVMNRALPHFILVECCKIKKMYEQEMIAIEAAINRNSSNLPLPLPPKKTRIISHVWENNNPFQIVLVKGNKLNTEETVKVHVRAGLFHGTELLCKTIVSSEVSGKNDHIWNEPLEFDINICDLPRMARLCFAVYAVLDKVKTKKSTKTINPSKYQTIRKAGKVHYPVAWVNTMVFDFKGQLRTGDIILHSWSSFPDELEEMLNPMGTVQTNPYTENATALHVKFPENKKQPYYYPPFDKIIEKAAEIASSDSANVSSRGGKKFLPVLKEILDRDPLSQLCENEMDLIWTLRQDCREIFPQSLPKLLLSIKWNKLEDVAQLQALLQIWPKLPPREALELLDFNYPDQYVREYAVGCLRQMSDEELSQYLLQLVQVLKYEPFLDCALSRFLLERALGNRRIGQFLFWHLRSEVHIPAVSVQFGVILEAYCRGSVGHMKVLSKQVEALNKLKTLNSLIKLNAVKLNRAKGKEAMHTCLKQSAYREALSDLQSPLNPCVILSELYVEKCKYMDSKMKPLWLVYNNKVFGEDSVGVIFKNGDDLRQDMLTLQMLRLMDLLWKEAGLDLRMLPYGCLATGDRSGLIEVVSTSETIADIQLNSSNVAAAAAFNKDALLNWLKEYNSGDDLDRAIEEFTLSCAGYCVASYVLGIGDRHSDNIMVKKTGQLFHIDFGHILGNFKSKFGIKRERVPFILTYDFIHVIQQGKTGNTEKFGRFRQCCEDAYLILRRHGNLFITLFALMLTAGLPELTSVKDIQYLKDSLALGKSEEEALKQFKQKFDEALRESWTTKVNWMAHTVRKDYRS
# Mus musculus [7] = experiment: Toxicity in mouse up to 90 mg/kg, ip or iv administered 3 to 5 times/week up to 4 weeks; type: organism-based; conditions: in vivo, 672 h
# Mus musculus [8] = experiment: Anti-asthmatic activity in mouse model of ovalbumin-induced asthma assessed as decrease in methacholine-induced lung resistance at 90 mg/kg aerosolized daily by plethysmographic method; type: functional, organism-based
# [9] = molecular target: PI3-kinase p110-delta/p85-alpha (Homo sapiens, UniProt O00329); experiment: Inhibition of PI3KCdelta/PIK3R1 (unknown origin); type: protein-complex assay
# PI3-kinase p110-delta/p85-alpha, sequence (P27986 whole entry, one chain of several): as the sequence (P27986 whole entry) above
# Mus musculus [10] = experiment: Anti-inflammatory activity in mouse model of ovalbumin-induced asthma assessed as decrease in eosinophilic infilteration at 90 mg/kg aerosolized daily; type: functional, organism-based
# [11] = molecular target: Phosphatidylinositol 4,5-bisphosphate 3-kinase catalytic subunit gamma isoform (Homo sapiens, UniProt P48736); experiment: Inhibition of PI3KCgamma (unknown origin)
# Phosphatidylinositol 4,5-bisphosphate 3-kinase catalytic subunit gamma isoform, sequence (P48736 whole entry, canonical isoform): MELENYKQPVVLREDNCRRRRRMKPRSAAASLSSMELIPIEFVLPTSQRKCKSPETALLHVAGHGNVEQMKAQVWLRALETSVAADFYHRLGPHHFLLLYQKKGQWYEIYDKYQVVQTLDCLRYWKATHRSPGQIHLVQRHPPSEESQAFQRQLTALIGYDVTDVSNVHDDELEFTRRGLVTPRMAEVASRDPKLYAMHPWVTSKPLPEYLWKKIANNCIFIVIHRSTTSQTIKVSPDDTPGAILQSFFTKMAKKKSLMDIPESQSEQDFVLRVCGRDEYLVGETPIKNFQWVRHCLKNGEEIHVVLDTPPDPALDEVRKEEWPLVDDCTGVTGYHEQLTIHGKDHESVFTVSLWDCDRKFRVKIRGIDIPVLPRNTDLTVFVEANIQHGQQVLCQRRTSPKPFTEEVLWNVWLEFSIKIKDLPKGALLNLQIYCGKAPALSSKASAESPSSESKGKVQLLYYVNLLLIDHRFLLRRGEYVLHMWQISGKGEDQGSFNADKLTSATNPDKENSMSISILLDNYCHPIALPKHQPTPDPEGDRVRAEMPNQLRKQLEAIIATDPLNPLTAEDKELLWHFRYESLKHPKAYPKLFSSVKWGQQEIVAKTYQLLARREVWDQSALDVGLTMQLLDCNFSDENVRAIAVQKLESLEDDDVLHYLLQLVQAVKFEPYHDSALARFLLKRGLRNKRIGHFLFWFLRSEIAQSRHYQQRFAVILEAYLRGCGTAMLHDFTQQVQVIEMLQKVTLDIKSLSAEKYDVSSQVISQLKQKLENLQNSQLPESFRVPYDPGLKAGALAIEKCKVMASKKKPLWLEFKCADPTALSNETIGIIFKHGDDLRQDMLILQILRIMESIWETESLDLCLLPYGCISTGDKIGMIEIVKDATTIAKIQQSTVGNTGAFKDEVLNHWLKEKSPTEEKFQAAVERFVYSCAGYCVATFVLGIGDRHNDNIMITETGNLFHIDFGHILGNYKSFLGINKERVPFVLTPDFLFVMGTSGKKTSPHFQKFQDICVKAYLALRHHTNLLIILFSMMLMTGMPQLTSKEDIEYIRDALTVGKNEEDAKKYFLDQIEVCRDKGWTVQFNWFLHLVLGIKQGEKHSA
# Mus musculus [12] = experiment: Protection against DNFB-induced atopic dermatitis in mouse assessed as reduction in ear thickness at 90 mg/kg, ip measured up to 3 days post DNFB treatment; type: functional, organism-based
# Mus musculus [13] = experiment: Anti-asthmatic activity in mouse model of ovalbumin-induced asthma assessed as decrease in methacholine-induced lung resistance at 90 mg/kg, ip daily by plethysmographic method; type: functional, organism-based
# [14] = molecular target: T1, Phosphatidylinositol 4,5-bisphosphate 3-kinase catalytic subunit delta isoform (Homo sapiens); experiment: Inhibition of PI3Kdelta in human basophils assessed as reduction in IgE-induced degranulation by measuring decrease in CD63 expression level by flow cast assay
# Mus musculus [15] = experiment: Anti-inflammatory activity in mouse model of ovalbumin-induced asthma assessed as decrease in neutrophilic infilteration at 90 mg/kg aerosolized daily; type: functional, organism-based
# Mus musculus [16] = experiment: Anti-inflammatory activity in mouse model of ovalbumin-induced asthma assessed as decrease in macrophage infilteration at 90 mg/kg aerosolized daily; type: functional, organism-based
# Mus musculus [17] = experiment: Anti-inflammatory activity in mouse model of ovalbumin-induced asthma assessed as decrease in total leukocytic infilterate in BAL administered ip daily; type: functional, organism-based
# [18] = molecular target: T1, Phosphatidylinositol 4,5-bisphosphate 3-kinase catalytic subunit delta isoform (Homo sapiens); experiment: Inhibition of PI3Kdelta in human basophils assessed as reduction in IgE-induced degranulation by decrease in measuring CD203c expression level by fluorescence assay
# Mus musculus [19] = experiment: Anti-inflammatory activity in mouse model of ovalbumin-induced asthma assessed as decrease in total leukocytic infilterate in lungs administered ip daily; type: functional, organism-based
# [20] = molecular target: PI3-kinase p110-alpha/p85-alpha (Homo sapiens, UniProt P42336); experiment: Inhibition of PI3KCalpha/PIK3R1 (unknown origin); type: protein-complex assay
# PI3-kinase p110-alpha/p85-alpha, sequence (P27986 whole entry): as the sequence (P27986 whole entry) above
# PI3-kinase p110-alpha/p85-alpha, sequence (P42336 whole entry): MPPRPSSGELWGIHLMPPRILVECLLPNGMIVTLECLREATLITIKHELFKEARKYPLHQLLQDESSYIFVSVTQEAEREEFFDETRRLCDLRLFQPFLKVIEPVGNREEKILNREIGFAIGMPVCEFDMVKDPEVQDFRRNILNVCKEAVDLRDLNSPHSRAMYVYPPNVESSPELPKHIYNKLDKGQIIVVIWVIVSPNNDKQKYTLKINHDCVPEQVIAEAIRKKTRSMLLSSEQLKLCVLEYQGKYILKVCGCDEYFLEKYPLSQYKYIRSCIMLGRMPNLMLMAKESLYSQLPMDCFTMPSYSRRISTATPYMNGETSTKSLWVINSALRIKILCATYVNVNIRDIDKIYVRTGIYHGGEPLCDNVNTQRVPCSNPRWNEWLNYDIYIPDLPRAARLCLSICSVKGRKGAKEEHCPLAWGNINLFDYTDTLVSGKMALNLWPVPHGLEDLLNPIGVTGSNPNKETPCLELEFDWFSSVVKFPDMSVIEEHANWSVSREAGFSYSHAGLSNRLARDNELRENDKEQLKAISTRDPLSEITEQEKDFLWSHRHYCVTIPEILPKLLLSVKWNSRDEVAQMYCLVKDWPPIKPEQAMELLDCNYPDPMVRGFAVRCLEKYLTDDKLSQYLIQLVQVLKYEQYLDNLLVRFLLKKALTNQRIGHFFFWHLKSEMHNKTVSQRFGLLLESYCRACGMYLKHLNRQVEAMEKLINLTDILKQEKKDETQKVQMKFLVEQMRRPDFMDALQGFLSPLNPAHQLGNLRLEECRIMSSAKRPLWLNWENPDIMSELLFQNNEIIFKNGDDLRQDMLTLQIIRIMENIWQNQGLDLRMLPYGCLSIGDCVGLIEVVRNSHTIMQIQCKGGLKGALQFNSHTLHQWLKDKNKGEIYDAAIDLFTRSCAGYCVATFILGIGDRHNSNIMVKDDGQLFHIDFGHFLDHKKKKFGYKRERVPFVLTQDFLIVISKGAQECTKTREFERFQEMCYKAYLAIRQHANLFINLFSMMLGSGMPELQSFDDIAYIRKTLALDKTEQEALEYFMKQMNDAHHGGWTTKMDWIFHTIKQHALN
# Mus musculus [21] = experiment: Protection against DNFB-induced atopic dermatitis in mouse assessed as reduction in ear thickness administered topically measured up to 4 days post DNFB treatment; type: functional, organism-based
# Mus musculus [22] = experiment: Anti-asthmatic activity in mouse model of ovalbumin-induced asthma assessed as decrease in methacholine-induced lung resistance at 10 mg/kg, ip daily by plethysmographic method; type: functional, organism-based
Activity [1],Activity [2],Compound,also measured
41%,4%,COc1cccc(OC)c1/C=C/C(=O)c1c(OC)cc(OC)c(C2CCN(C)CC2)c1O,
,,C[C@@H]1C[C@H]2[C@@H]3CCC4=CC(=O)C=C[C@]4(C)[C@@]3(F)[C@@H](O)C[C@]2(C)[C@@]1(O)C(=O)CO,Activity (Mus musculus [3]): Active; Activity (Mus musculus [4]): Active
81%,64%,COc1cccc(OC)c1C(=O)/C=C/c1ccc(C(F)(F)F)cc1,
82%,100%,COc1cccc(/C=C/C(=O)c2c(OC)cccc2OC)c1,
91%,95%,COc1ccc(C(=O)/C=C/c2c(OC)cc(OC)cc2OC)c(O)c1,
24%,6%,COc1cc(OC)c(C2CCN(C)CC2)c(O)c1C(=O)/C=C/c1c(Cl)cccc1Cl,
81%,78%,COc1cc(OC)c(/C=C/C(=O)c2c(OC)cccc2OC)c(OC)c1,
85%,81%,COc1cc(O)c(C(=O)/C=C/c2c(OC)cccc2OC)c(OC)c1,
65%,48%,COc1cc(OC)c(C(=O)/C=C/c2ccccc2OC)c(OC)c1,
,,COc1cc(OC)c(/C=C/C(=O)c2c(OC)cc(OC)c(C3CCN(C)CC3)c2O)c(OC)c1,Activity (Mus musculus [5]): Dose-dependent effect; Activity (Mus musculus [6]): inactive; IC50 (PI3K p110 beta/p85 alpha): > 10 µM; Activity (Mus musculus [7]): Non-Toxic; Activity (Mus musculus [8]): Active; IC50 [9]: 7.2 µM; Activity (Mus musculus [10]): inactive; IC50 [11]: 10 µM; Activity (Mus musculus [12]): Active; Activity (Mus musculus [13]): Active; inhibition [14]: Dose-dependent effect; Activity (Mus musculus [15]): inactive; Activity (Mus musculus [16]): inactive; Activity (Mus musculus [17]): Dose-dependent effect; inhibition [18]: Dose-dependent effect; Activity (Mus musculus [19]): Dose-dependent effect; IC50 [20]: > 10 µM
70%,66%,COc1cc(OC)c(OC)cc1/C=C/C(=O)c1cc(OC)c(OC)cc1OC,
62%,49%,COc1ccc(/C=C/C(=O)c2cc(OC)c(OC)cc2OC)cc1O,
,,CCC(=O)OCC(=O)[C@@]1(OC(=O)CC)[C@@H](C)C[C@H]2[C@@H]3CCC4=CC(=O)C=C[C@]4(C)[C@@]3(F)[C@@H](O)C[C@@]21C,Activity (Mus musculus [21]): Active
93%,92%,COc1ccc(C(=O)/C=C/c2cc(OC)c(OC)c(OC)c2)c(O)c1,
65%,55%,COc1ccccc1/C=C/C(=O)c1cc(OC)c(OC)cc1OC,
,,O=C(O)c1cc(=O)c2c(OCC(O)COc3cccc4oc(C(=O)O)cc(=O)c34)cccc2o1,Activity (Mus musculus [22]): inactive
86%,76%,COc1ccc(C(=O)/C=C/c2c(OC)cc(OC)cc2OC)c(OC)c1,
75%,63%,COc1cc(OC)c(/C=C/C(=O)c2c(OC)cc(N)cc2OC)c(OC)c1,
96%,94%,COc1cccc(OC)c1/C=C/C(=O)c1c(OC)cccc1OC,
51%,53%,COc1cc(OC)c(C(=O)/C=C/c2cc(OC)c(OC)cc2OC)c(OC)c1,
95%,91%,COc1cc(OC)c(/C=C/C(=O)c2ccc(OC)c(OC)c2)c(OC)c1,
54%,40%,COc1cc(OC)c(C(=O)/C=C/c2ccc(OC)c(O)c2)c(OC)c1,
68%,67%,COc1cc(OC)c(/C=C/C(=O)c2c(OC)cc(OC)cc2OC)c(OC)c1,
